Article PMC3315515, “Identification of Novel Mt-Guab2 Inhibitor Series Active against M. tuberculosis” (PLoS ONE, 2012)
Converted amounts (≈) assume the structure as drawn. “And” between values parts separate entries of the source, which are not always exact repeats. Equal entries are not always repeated. “Also recorded” adds a separate entry of the source. Where two headings read alike, the source gives them in different places.

How the values were obtained:
M. tuberculosis H37Rv = conditions: cited from earlier work
Mt-GuaB2 = Mt-GuaB2 (Mycobacterium tuberculosis, UniProt P9WKI7); assay: Mt-GuaB2 spectrophotometric assay (NADH formation at 340 nm), inhibitor kinetics; assay type: biochemical
M. smegmatis mc^2 155 = assay: microbe, parasite or virus in culture; assay type: cell-based; conditions: for M. smeg MIC90: Table 2, highest concentration tested 128 µg/ml
[1] = tested on: NC(=O)c1ccc[n+]([C@@H]2O[C@H](COP(=O)([O-])OP(=O)(O)OC[C@H]3O[C@@H](n4cnc5c(N)ncnc54)[C@H](O)[C@@H]3O)[C@@H](O)[C@H]2O)c1; assay: purified protein, by the assay type; conditions: other: variable substrate, fixed saturating co-substrate, 200 µl assay; pH 8.5; 37.0 °C
M. smegmatis = assay: bactericidal activity against M. smegmatis (colony counts after 24 hours exposure); assay type: cell-based; conditions: Mycolicibacterium smegmatis, at least 99% reduction of viable counts, read-out: minimum bactericidal concentration (MBC)
[2] = tested on: M. smegmatis overexpressing Mt-GuaB2; assay: microbe, parasite or virus in culture; assay type: cell-based
[3] = acute maximum tolerated dose (MTD) test; conditions: single dose 100, 300, 500 mg/kg by gavage in 0.5% methyl cellulose, seven days observation, C57BL/6 mice
M. smegmatis pVV16 = assay: MIC of M. smegmatis with empty pVV16 vector control; assay type: cell-based; conditions: Mycolicibacterium smegmatis, Figure 4, vector alone control
[4] = tested on: M. tuberculosis Erdman strain; conditions: for Log 10 Protection, spleen / Log 10 Protection, lung: versus untreated controls d24, INH 25, 7759844 300 mg/kg/day
S. pyogenes IMPDH = conditions: ref [29], [34]; cited from earlier work
[5] = Table 2, Life Chemicals set, values without footnote a, previous screens ref [35]–[37]
[6] = Table 2, varied IMP, fixed saturating NAD+ 2.8 mM
[7] = Table 2, values with footnote a, ref Reynolds et al., 2011

Mt-GuaB2, sequence (P9WKI7 whole entry, looked up): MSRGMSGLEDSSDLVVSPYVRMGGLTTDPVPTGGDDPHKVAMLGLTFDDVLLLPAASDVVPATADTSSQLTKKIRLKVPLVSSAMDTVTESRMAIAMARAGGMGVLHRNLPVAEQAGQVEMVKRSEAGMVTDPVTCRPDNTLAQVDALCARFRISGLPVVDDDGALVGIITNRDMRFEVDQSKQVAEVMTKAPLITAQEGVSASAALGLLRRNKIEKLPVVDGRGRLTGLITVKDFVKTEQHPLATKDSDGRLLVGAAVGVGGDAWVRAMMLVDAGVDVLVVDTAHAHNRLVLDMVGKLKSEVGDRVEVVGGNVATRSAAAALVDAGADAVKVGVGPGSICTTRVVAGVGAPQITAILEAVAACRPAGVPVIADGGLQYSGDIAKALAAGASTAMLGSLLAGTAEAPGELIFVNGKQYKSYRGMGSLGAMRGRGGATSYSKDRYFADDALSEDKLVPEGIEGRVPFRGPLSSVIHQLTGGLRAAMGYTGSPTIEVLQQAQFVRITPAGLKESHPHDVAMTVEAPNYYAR

Compound	M. tb MIC90 (M. tuberculosis H37Rv; [5]) [µg/mL]	IMP αK i (Mt-GuaB2; [6]) [µM]	M. smeg MIC90 (M. smegmatis mc^2 155; TSB agar, 37°C, 3 days) [µg/mL]	also measured
O=C(Nc1nnc(-c2ccc(Br)cc2)o1)c1sc2ccccc2c1Cl [F2518-0484]	6.70	35.5	3	–
Mt-GuaB2 (Mycobacterium tuberculosis H37Rv)	–	–	–	Km [1]: 699.4 ± 63.70 µM
O=C(Nc1nnc(-c2cccs2)o1)c1nc2ccccc2s1 [F1374-0978]	–	28.3	>128	M. tb MIC90 (M. tuberculosis H37Rv; [7]): 2.98 ^a µg/ml
CCOc1cc(-c2nnc(NC(=O)c3cc4ccccc4cc3OC)o2)cc(OCC)c1OCC [F2517-0198]	2.68	19.1	>128	–
O=C(Nc1nnc(-c2ccc(Cl)s2)o1)c1nc2ccccc2s1 [F1374-1083]	4.81	4.86	>128	–
Cc1ccc(C)c(-c2nnc(NC(=O)c3cccc4ccccc34)o2)c1 [F2518-0386]	–	22.6	–	M. tb MIC90 (M. tuberculosis H37Rv; [7]): 0.41 µg/ml and 0.41 ^a µg/ml
COc1ccc(OC(C)C(=O)Nc2ccc(I)cc2)cc1 (centres unmarked) [compound 7759844]	–	–	–	MBC (M. smegmatis): 32 µg/mL (≈ 80.6 µM); MIC99 ([2]; Mycolicibacterium smegmatis, Figure 4, Mt-GuaB2 overexpression construct in pVV16): 48 µg/mL (≈ 121 µM); increase in MIC of Mt-GuaB2 overexpressing strain ([2]; compared with pVV16 vector control and wild type M. smegmatis): 6 fold; tolerability, acute single dose [3]: no dose related adverse effects; also recorded: well tolerated with no acute adverse effects; also recorded: not toxic; M. tb MIC90 (M. tuberculosis H37Rv; Table 1, Chembridge compounds, M. tuberculosis H37Rv, previous screens ref [35]–[37]): 0.63 µg/mL; M. tb MIC90 (M. tuberculosis H37Rv; Table 3, analogs of lead scaffold, previous screens ref [35]–[37]): 0.633 µg/mL; MIC99 (M. smegmatis pVV16): 8 µg/mL; Log 10 Protection, spleen ([4]; spleen): 0.84 log10 protection units; Activity ([4]; spleen, 300 mg/kg/day): slightly active; IMP αK i (Mt-GuaB2; Table 1, varied IMP, fixed saturating NAD+ 2.8 mM): 0.603 µM; IMP αK i (Mt-GuaB2; Table 3, analogs of lead scaffold): 0.603 µM; K i values (Mt-GuaB2; with respect to both substrates IMP and NAD+): nanomolar range; MIC90 (M. smegmatis mc^2 155; Mycolicibacterium smegmatis, MC^2155, 72 h, Table 1, TSB agar, 37°C, 3 days, read-out: M. smeg MIC90): 8 µg/mL (≈ 20.1 µM); MIC99 (M. smegmatis mc^2 155; Mycolicibacterium smegmatis, MC^2155, Figure 4, M. smegmatis mc^2 155): 8 µg/mL (≈ 20.1 µM)
CC(C)c1ccc(OCC(=O)Nc2nccs2)cc1 [F1685-0077]	6.88	229.3	>128	–
NNC(=O)c1ccncc1 [Isoniazid, isoniazid, reference compound]	–	–	–	Log 10 Protection, lung ([4]; 300 mg/kg/day): 2.7 log10 protection units; Log 10 Protection, lung ([4]; listed as INH, 300 mg/kg/day): 2.70 log10 protection units; Log 10 Protection, spleen ([4]; spleen, 300 mg/kg/day): 4.0 log10 protection units; Log 10 Protection, spleen ([4]; spleen, listed as INH, 300 mg/kg/day): 4.04 log10 protection units
COc1cc2ccccc2cc1C(=O)Nc1nnc(-c2cc(C)ccc2C)o1 [F2518-0413]	1.23	36.4	>128	–
O=C(Nc1nnc(-c2ccccc2Cl)o1)c1nc2ccccc2s1 [F1374-0033]	1.75	60.9	8	–
NC(=O)c1ccc[n+]([C@@H]2O[C@H](COP(=O)([O-])OP(=O)(O)OC[C@H]3O[C@@H](n4cnc5c(N)ncnc54)[C@H](O)[C@@H]3O)[C@@H](O)[C@H]2O)c1 [NAD^+, nicotinamide adenine dinucleotide]	–	–	–	Km (S. pyogenes IMPDH): ~1180 µM
O=C(CS(=O)(=O)c1ccccc1)Nc1nc(-c2ccc3c(c2)CCCC3)cs1 [F2536-1573]	1.02	79.0	>128	–
Cc1ccc(-c2nnc(NC(=O)c3nc4ccccc4s3)o2)c(C)c1 [F2518-0183]	–	57.1	>128	M. tb MIC90 (M. tuberculosis H37Rv; [7]): 1.76 ^a µg/ml
O=C(Nc1nnc(-c2ccccc2)o1)c1cc(-c2cccs2)nc2ccccc12 [F1374-0885]	0.72	19.0	2	–
COc1cc2ccccc2cc1C(=O)Nc1nnc(-c2ccc(F)cc2)o1 [F1374-0205]	5.59	35.3	>128	–
COc1ccccc1-c1nnc(NC(=O)c2sc3ccccc3c2Cl)o1 [F1374-0253]	5.30	11.2	>128	pattern of inhibition with respect to IMP (Mt-GuaB2): uncompetitive inhibition; pattern of inhibition with respect to NAD+ (Mt-GuaB2): noncompetitive inhibition; pattern of inhibition with respect to NAD (Mt-GuaB2; Table 2): NC ((NC) Noncompetitive); Ki (Mt-GuaB2; Table 2, varied NAD+, fixed saturating IMP […], read-out: NAD K i): 435 µM
Cc1ccc(-c2nnc(NC(=O)COc3ccccc3)o2)c(C)c1 [F2518-0274]	5.50	765.4	20	–
Cc1ccc(C)c(-c2nnc(NC(=O)COc3ccccc3)o2)c1 [F2518-0418]	2.24	328.7	32	–
Cc1ccc(C)c(-c2nnc(NC(=O)C3COc4ccccc4O3)o2)c1 (centres unmarked) [F2518-0401]	1.18	501.9	16	–
